The values that follow come from patent US8871753B2, “Macrocyclic compounds and their use as kinase inhibitors” (Incyte Corporation, priority 2008, dated 2014).

Where two headings read alike, the source gives them in different places.

What all share (assay type): biochemical
Test [1] has as its target T1, human JAK1 (a.a. 837-1142) (Homo sapiens, UniProt P23458).
T1 construct: human JAK1 (a.a. 837-1142); His tag (N); made in house; host or cells: insect cells (baculovirus)
Nature of the test: In vitro JAK kinase assay (HTRF, phosphorylation of a biotinylated peptide), JAK1. The settings on record: read-out: JAK1 IC50. In a few lines: (§1)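 Phosphorylation of a biotinylated peptide by the JAK kinase domain, detected by HTRF with Eu-Py20 and SA-APC. ATP was 90 μM for JAK1, 30 μM for JAK2 and 3 μM for JAK3. Reactions ran 1 h at room temperature and were stopped with EDTA, followed by 40 min antibody binding.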
Background: In TR-FRET formats the signal depends on donor and acceptor labels being close together.

Test [2] has as its target T2, Recombinant Human Anaplastic Lymphoma Kinase (Homo sapiens, UniProt Q9UM73).
T2 construct: purchased Invitrogen, Carlsbad, Calif
Put plainly: ALK HTRF kinase assay. The text has this: Materials: Recombinant Human Anaplastic Lymphoma Kinase was purchased from Invitrogen, Carlsbad, Calif. Peptide substrate (Biotin-[…]-amide) was custom synthesized at EZBiolab, Westfield, Ind. Streptavidin conjugated SureLight-Allophycocyania and LANCE Eu-W1024 labeled anti-phosphotyrosine antibody were from Perkin-Elmer, Boston, Mass. Microplates were from Corning Inc., Acton, Mass. All other reagents were from Sigma, St. Louis, Mo.
Plates were read in Fusion α-FP instrument (Perkin-Elmer). […] Signal=Bottom+(Top−Bottom)/(1+10^((Log(IC50)−Log [I])*Hill Slope) Bottom and Top refer to the post and pre-transition baselines, respectively.

The target in test [3] is T3, human JAK2 (a.a. 828-1132) (Homo sapiens, UniProt O60674).
T3 construct: JAK2 (a.a. 828-1132); His tag (N); made in house; host or cells: insect cells (baculovirus)
Put plainly: In vitro JAK kinase assay (HTRF, phosphorylation of a biotinylated peptide), JAK2. In a few lines:
as §1

Test [4] deals with T4, human JAK3 (a.a. 781-1124) (Homo sapiens, UniProt P52333).
T4 construct: JAK3 (a.a. 781-1124); His tag (N); made in house; host or cells: insect cells (baculovirus)
Nature of the test: In vitro JAK kinase assay (HTRF, phosphorylation of a biotinylated peptide), JAK3. In a few lines:
as §1

For a further test, the target named is TYK2 (Homo sapiens, UniProt P29597). Nature of the test: TYK2 kinase inhibition (Table A1).
[5] abbreviates: method AA1 (90 μM ATP) or AA2 (1000 μM ATP), not stated per value.
The mark [6] stands for this setting: compound at 500 nM or 1 mM, 90 μM ATP.
Where [7] appears, read: method AA1 (30 μM ATP) or AA2 (1000 μM ATP), not stated per value.

Sequence of TYK2 (P29597 whole entry): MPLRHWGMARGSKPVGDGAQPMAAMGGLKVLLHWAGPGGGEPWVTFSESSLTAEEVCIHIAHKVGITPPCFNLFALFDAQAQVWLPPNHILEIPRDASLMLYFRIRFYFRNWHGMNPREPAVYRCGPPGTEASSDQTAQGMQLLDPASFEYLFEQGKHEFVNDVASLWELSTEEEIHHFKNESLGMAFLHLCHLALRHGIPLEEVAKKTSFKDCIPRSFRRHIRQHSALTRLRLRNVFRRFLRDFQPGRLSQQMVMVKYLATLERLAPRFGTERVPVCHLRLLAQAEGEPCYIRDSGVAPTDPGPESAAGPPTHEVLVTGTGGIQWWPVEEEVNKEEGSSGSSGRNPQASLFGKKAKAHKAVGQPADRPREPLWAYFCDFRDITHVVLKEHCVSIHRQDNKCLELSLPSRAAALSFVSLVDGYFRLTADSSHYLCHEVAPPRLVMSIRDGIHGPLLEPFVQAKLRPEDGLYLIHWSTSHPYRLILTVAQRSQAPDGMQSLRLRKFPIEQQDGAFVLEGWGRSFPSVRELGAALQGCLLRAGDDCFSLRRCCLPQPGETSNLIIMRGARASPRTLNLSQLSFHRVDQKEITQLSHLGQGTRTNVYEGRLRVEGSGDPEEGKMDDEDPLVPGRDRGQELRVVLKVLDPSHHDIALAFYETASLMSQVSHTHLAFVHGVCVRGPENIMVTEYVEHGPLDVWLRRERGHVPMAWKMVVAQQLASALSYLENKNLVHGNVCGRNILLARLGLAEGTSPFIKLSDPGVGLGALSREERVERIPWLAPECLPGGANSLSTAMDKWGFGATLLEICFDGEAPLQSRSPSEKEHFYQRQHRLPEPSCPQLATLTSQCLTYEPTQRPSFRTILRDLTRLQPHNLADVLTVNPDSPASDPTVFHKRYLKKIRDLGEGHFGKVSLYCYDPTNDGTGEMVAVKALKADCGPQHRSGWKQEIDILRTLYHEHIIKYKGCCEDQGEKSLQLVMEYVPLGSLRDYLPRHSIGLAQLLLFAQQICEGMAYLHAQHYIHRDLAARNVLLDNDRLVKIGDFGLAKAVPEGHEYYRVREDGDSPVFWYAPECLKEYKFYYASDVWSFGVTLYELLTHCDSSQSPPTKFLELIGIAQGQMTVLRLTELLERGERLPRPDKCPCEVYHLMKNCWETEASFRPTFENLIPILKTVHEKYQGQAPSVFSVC
T2 sequence (Q9UM73 19-1620): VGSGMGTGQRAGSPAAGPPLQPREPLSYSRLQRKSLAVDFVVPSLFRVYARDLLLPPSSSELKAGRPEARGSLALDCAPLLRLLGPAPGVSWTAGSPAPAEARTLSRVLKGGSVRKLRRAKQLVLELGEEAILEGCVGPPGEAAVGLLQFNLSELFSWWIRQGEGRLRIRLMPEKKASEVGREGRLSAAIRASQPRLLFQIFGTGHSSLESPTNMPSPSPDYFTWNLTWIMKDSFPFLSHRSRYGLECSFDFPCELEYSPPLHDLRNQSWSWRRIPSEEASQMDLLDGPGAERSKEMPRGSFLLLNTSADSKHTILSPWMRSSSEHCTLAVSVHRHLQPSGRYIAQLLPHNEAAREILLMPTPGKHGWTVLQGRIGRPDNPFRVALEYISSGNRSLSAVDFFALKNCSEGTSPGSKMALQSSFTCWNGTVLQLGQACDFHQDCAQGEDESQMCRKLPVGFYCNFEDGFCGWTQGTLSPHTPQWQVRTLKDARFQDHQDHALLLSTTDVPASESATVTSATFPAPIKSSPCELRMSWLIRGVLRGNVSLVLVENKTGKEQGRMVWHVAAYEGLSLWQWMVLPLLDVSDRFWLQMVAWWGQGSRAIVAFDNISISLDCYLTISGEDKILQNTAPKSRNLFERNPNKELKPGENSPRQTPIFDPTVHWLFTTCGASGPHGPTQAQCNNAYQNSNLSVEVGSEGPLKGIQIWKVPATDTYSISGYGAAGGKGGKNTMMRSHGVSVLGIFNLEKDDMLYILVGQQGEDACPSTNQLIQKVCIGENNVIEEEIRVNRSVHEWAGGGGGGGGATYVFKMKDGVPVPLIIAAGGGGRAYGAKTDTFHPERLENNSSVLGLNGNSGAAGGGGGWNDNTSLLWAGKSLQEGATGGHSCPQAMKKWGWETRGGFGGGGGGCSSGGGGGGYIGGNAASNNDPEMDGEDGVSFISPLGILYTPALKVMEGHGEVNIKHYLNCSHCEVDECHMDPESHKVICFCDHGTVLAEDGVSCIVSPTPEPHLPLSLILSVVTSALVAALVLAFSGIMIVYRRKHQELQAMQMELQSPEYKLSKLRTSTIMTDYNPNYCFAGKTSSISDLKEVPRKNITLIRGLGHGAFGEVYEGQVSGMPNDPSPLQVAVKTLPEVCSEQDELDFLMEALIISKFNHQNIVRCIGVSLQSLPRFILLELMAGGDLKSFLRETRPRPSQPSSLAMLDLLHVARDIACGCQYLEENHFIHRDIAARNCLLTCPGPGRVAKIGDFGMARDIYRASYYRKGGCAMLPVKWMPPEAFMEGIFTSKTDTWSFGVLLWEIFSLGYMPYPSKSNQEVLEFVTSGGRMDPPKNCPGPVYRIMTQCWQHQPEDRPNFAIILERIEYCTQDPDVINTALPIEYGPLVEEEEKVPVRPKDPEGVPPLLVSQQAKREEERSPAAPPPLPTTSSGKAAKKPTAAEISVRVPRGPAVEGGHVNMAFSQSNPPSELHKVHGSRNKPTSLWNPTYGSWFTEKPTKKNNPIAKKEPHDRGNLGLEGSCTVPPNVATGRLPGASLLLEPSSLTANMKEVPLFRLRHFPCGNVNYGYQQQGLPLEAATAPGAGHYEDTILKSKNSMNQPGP
T1 sequence (P23458 849-1154): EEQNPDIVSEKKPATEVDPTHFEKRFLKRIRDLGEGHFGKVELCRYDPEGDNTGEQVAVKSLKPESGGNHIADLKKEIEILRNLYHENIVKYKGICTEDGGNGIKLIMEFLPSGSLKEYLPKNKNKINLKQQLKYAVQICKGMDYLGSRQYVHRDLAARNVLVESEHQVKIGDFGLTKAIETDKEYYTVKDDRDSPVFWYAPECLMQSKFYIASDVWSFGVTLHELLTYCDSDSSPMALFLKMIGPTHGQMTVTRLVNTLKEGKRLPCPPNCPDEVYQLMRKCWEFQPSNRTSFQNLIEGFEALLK
T3 sequence (O60674 828-1132): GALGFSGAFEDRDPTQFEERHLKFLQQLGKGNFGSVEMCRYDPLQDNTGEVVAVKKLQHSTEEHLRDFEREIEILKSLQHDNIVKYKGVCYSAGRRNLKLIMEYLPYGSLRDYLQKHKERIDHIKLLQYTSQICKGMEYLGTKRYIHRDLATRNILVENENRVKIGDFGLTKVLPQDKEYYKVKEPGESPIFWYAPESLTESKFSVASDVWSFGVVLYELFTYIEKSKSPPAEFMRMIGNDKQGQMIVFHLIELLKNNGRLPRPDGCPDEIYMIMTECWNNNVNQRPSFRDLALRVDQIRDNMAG
T4 sequence (P52333 781-1124): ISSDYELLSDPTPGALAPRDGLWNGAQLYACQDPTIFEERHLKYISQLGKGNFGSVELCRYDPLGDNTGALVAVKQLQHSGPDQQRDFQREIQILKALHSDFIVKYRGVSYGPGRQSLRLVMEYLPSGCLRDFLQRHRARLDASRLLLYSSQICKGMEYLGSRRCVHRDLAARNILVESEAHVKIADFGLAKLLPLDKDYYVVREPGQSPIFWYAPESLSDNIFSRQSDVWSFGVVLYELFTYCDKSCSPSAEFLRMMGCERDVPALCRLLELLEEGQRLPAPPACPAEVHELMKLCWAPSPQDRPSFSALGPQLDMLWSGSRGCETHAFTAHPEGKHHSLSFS

With `O=C(CC1CCN(C(=O)c2ccns2)CC1)Nc1ccc2cc1CCc1cncc(c1)Nc1ncc(Cl)c(n1)N2` [Example A168, N-[6-Chloro-2,4,8,18,22-pentaazatetracyclo[14.3.1.1(3,7).1(9,13)]docosa-1(20),3(22),4,6,9(21),10,12,16,18-nonaen-12-yl]-2-[1-(isothiazol-5-ylcarbonyl)piperidin-4-yl]acetamide bis(trifluoroacetate)], in test [1] (setting [5]), the IC50 – broadly, the concentration at which inhibition is half-maximal – turned out to be 22 nM. Besides, the “ALK % of inhibition at a concentration of 500 nM or 1 mM” value (“ALK % of inhibition” for short) in test [2] (setting [6]) amounted to 27%.

Take `Cc1nonc1C(=O)N1CCC(CC(=O)Nc2ccc3cc2CCc2cncc(c2)Nc2ncc(Cl)c(n2)N3)CC1` [Example A166, N-[6-Chloro-2,4,8,18,22-pentaazatetracyclo[14.3.1.1(3,7).1(9,13)]docosa-1(20),3(22),4,6,9(21),10,12,16,18-nonaen-12-yl]-2-{1-[(4-methyl-1,2,5-oxadiazol-3-yl)carbonyl]piperidin-4-yl}acetamide bis(trifluoroacetate)]: the IC50 came to 6.5 nM in test [1] (setting [5]) and 300 nM in test [3] (setting [7]). Besides, the “ALK % of inhibition” value in test [2] (setting [6]) was 32%.

Turning to `NC1CCN(c2ccnc(Nc3ccc4cc3CCc3cncc(c3)Nc3ncc(Cl)c(n3)N4)n2)CC1` [Example B282, N-[4-(4-Aminopiperidin-1-yl)pyrimidin-2-yl]-6-chloro-2,4,8,18,22-pentaazatetracyclo[14.3.1.1(3,7).1(9,13)]docosa-1(20),3(22),4,6,9(21),10,12,16,18-nonaen-12-amine tetrakis(trifluoroacetate)], the IC50 in test [1] (Table B1) and in test [3] (Table B1) was above 1000 nM each time. In test [2] (compound at a concentration of 500 nM or 1 mM (not specified), cells shown as percentage), the “ALK % of inhibition” value is 0%.

With `Cc1nocc1C(=O)N1CCC(CC(=O)Nc2ccc3cc2CCc2cncc(c2)Nc2ncc(Cl)c(n2)N3)CC1` [Example A165, N-[6-Chloro-2,4,8,18,22-pentaazatetracyclo[14.3.1.1(3,7).1(9,13)]docosa-1(20),3(22),4,6,9(21),10,12,16,18-nonaen-12-yl]-2-{1-[(3-methylisoxazol-4-yl)carbonyl]piperidin-4-yl}acetamide bis(trifluoroacetate)], the IC50 is 64 nM in test [1] (setting [5]) and above 1000 nM in test [3] (setting [7]). The “ALK % of inhibition” value in test [2] (setting [6]) is 23%.

In the case of `O=C(CC1CCN(c2nccs2)CC1)Nc1ccc2cc1CCc1cncc(c1)Nc1ncc(Cl)c(n1)N2` [Example A159, N-[6-Chloro-2,4,8,18,22-pentaazatetracyclo[14.3.1.1(3,7).1(9,13)]docosa-1(20),3(22),4,6,9(21),10,12,16,18-nonaen-12-yl]-2-[1-(1,3-thiazol-2-yl)piperidin-4-yl]acetamide tris(trifluoroacetate)], the IC50 in test [1] (setting [5]) stood at 3.6 nM; in test [3] (setting [7]), 87 nM. Besides, the “ALK % of inhibition” value in test [2] (setting [6]) is reported as 24%.

For the compound `Cc1occc1C(=O)N1CCC(CC(=O)Nc2ccc3cc2CCc2cncc(c2)Nc2ncc(Cl)c(n2)N3)CC1` [Example A160, N-[6-Chloro-2,4,8,18,22-pentaazatetracyclo[14.3.1.1(3,7).1(9,13)]docosa-1(20),3(22),4,6,9(21),10,12,16,18-nonaen-12-yl]-2-[1-(2-methyl-3-furoyl)piperidin-4-yl]acetamide bis(trifluoroacetate)], the IC50 in test [1] (setting [5]) stood at 5 nM; in test [3] (setting [7]) it was 271 nM. Moreover, the “ALK % of inhibition” value in test [2] (setting [6]) is on record as 19%.

As to `O=C(c1cccs1)N1Cc2cccc(c2)Nc2ncc(Cl)c(n2)Nc2cccc1c2` [Example C25, 6-Chloro-14-(2-thienylcarbonyl)-2,4,8,14,22-pentaazatetracyclo[14.3.1.1(3,7).1(9,13)]docosa-1(20),3(22),4,6,9(21),10,12,16,18-nonaene], the IC50 in test [1] is 91 nM; in test [3], 173 nM; in test [4], above 10000 nM; on TYK2, 793 nM.

In the case of `Cc1nc(S(=O)(=O)Nc2ccc3cc2CCc2cccc(c2)Nc2ncc(Cl)c(n2)N3)cn1C` [Example B151, N-[6-Chloro-2,4,8,22-tetraazatetracyclo[14.3.1.1(3,7).1(9,13)]docosa-1(20),3(22),4,6,9(21),10,12,16,18-nonaen-12-yl]-1,2-dimethyl-1H-imidazole-4-sulfonamide bis(trifluoroacetate)], the IC50 in test [1] (Table B1) was found to be 2.9 nM; in test [3] (Table B1), 1.2 nM; in test [4] (Table B1), 36 nM; against TYK2 (Table B1), 1.4 nM.

With `O=C(c1ccc(F)cc1F)N1CCC(CCNc2ccc3cc2CCc2cncc(c2)Nc2ncc(Cl)c(n2)N3)CC1` [Example D220, 6-Chloro-N-{2-[1-(2,4-difluorobenzoyl)piperidin-4-yl]ethyl}-2,4,8,18,22-pentaazatetracyclo[14.3.1.1(3,7).1(9,13)]docosa-1(20),3(22),4,6,9(21),10,12,16,18-nonaen-12-amine tris(trifluoroacetate)], the IC50 is 14 nM in test [1] (Table D1), 40 nM in test [3] (Table D1), above 400 nM in test [4] (Table D1) and 38 nM at TYK2 (Table D1).

As to `Clc1cnc2nc1Nc1ccc(OCC3CCNCC3)c(c1)CCc1cncc(c1)N2` [Example D225, 6-Chloro-12-(piperidin-4-ylmethoxy)-2,4,8,18,22-pentaazatetracyclo[14.3.1.1(3,7).1(9,13)]docosa-1(20),3(22),4,6,9(21),10,12,16,18-nonaene tris(trifluoroacetate)], the IC50 in test [1] (Table D1) is 180 nM; in test [3] (Table D1), above 400 nM; in test [4] (Table D1), above 400 nM; against TYK2 (Table D1) it was above 400 nM.

In the case of `COC(=O)N1CCN(C(=O)COc2ccc3cc2CCc2cncc(c2)Nc2ncc(Cl)c(n2)N3)CC1` [Example D261, Methyl 4-({[6-chloro-2,4,8,18,22-pentaazatetracyclo[14.3.1.1(3,7).1(9,13)]docosa-1(20),3(22),4,6,9(21),10,12,16,18-nonaen-12-yl]oxy}acetyl)piperazine-1-carboxylate bis(trifluoroacetate)], the IC50 in test [1] (Table D1) was 31 nM; in test [3] (Table D1), 106 nM; in test [4] (Table D1), above 400 nM; against TYK2 (Table D1) it was above 400 nM.

Consider `O=C(CC1CN(c2nccs2)C1)Nc1ccc2cc1CCc1cncc(c1)Nc1ncc(Cl)c(n1)N2` [Example D152, N-[6-Chloro-2,4,8,18,22-pentaazatetracyclo[14.3.1.1(3,7).1(9,13)]docosa-1(20),3(22),4,6,9(21),10,12,16,18-nonaen-12-yl]-2-[1-(1,3-thiazol-2-yl)azetidin-3-yl]acetamide tris(trifluoroacetate)], for which the IC50 was 21 nM in test [1] (Table D1), 95 nM in test [3] (Table D1), above 400 nM in test [4] (Table D1) and 265 nM against TYK2 (Table D1).

For the compound `O=C(COc1ccc2cc1CCc1cncc(c1)Nc1ncc(Cl)c(n1)N2)N1CCC(c2cc(-c3cccs3)[nH]n2)CC1` [Example D257, 6-Chloro-12-(2-oxo-2-{4-[5-(2-thienyl)-1H-pyrazol-3-yl]piperidin-1-yl}ethoxy)-2,4,8,18,22-pentaazatetracyclo[14.3.1.1(3,7).1(9,13)]docosa-1(20),3(22),4,6,9(21),10,12,16,18-nonaene tris(trifluoroacetate)], the IC50 was 63 nM in test [1] (Table D1), 112 nM in test [3] (Table D1), above 400 nM in test [4] (Table D1) and above 400 nM on TYK2 (Table D1).

Regarding `O=C(COc1ccc2cc1CCc1cncc(c1)Nc1ncc(Cl)c(n1)N2)N1CCN(C(=O)c2ccc(F)cc2F)CC1` [Example D259, 6-Chloro-12-{2-[4-(2,4-difluorobenzoyl)piperazin-1-yl]-2-oxoethoxy}-2,4,8,18,22-pentaazatetracyclo[14.3.1.1(3,7).1(9,13)]docosa-1(20),3(22),4,6,9(21),10,12,16,18-nonaene bis(trifluoroacetate)], the IC50 is 42 nM in test [1] (Table D1), 37 nM in test [3] (Table D1), above 400 nM in test [4] (Table D1) and above 400 nM against TYK2 (Table D1).

Consider `O=C(COc1ccc2cc1CCc1cncc(c1)Nc1ncc(Cl)c(n1)N2)N1CCN(c2ncccn2)CC1` [Example D233, 6-Chloro-12-[2-oxo-2-(4-pyrimidin-2-ylpiperazin-1-yl)ethoxy]-2,4,8,18,22-pentaazatetracyclo[14.3.1.1(3,7).1(9,13)]docosa-1(20),3(22),4,6,9(21),10,12,16,18-nonaene tris(trifluoroacetate)], for which the IC50 was 100 nM in test [1] (Table D1), above 400 nM in test [3] (Table D1), above 400 nM in test [4] (Table D1) and above 400 nM at TYK2 (Table D1).
